Some test systems named below: MALME-3M melanoma; UO-31 renal; UACC-62 melanoma; SK-OV-3 ovarian; COLO 205 colon; EKVX NSCLC; MOLT-4 leukemia; A549 NSCLC.
Assay in all cases: growth of human tumour cells (NCI), 48 h

Where “and” joins values, the source holds several entries; their conditions need not be identical. Equal values may be shown once.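 Briefly, cells in 96-well plates were exposed to five compound concentrations for 48 h, and endpoints were estimated by linear interpolation. GI50 marks 50% less growth. TGI is the concentration that stops growth completely.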

For `N#Cc1cc([N+](=O)[O-])ccc1NC(=O)C(=O)Nc1n[nH]c(N)n1`, the TGI in the assay on MALME-3M melanoma, in the assay with UO-31 renal, in the assay with UACC-62 melanoma, in the assay with SK-OV-3 ovarian, with COLO 205 colon and in the assay with EKVX NSCLC was more than 100 µM each time. For the same molecule, the TGI with MOLT-4 leukemia and in the assay on A549 NSCLC was more than 100 µM throughout.

With `CC(=O)CNC(=O)OC(C)(C)C`, the TGI in the assay with MALME-3M melanoma, with UO-31 renal, in the assay on UACC-62 melanoma, in the assay with SK-OV-3 ovarian, in the assay with EKVX NSCLC and in the assay with MOLT-4 leukemia was more than 100 µM each time. For the same molecule, in the assay on A549 NSCLC, the TGI is more than 100 µM.

As for `C/C(CC(=O)Nc1ccc(C)cc1C)=N/N=C(N)N`, the TGI with MALME-3M melanoma, in the assay with UO-31 renal, with UACC-62 melanoma, in the assay on SK-OV-3 ovarian, in the assay on COLO 205 colon and with EKVX NSCLC was more than 100 µM each time. Besides, the TGI in the assay with MOLT-4 leukemia and in the assay with A549 NSCLC was more than 100 µM in each case.

In the case of `COC12C=C(C)C(CC1)CC2C(=O)O` (stereo unspecified), the TGI in the assay on MALME-3M melanoma, with UO-31 renal, in the assay on UACC-62 melanoma, in the assay on SK-OV-3 ovarian, in the assay on COLO 205 colon and in the assay with EKVX NSCLC was more than 100 µM each time. Further, the TGI in the assay with MOLT-4 leukemia and in the assay on A549 NSCLC was more than 100 µM throughout.

For `O=C(/N=N/C(=O)OCc1ccccc1)OCc1ccccc1`, the TGI in the assay on MALME-3M melanoma, in the assay with UO-31 renal, in the assay on UACC-62 melanoma, with SK-OV-3 ovarian, with COLO 205 colon and with EKVX NSCLC was more than 100 µM in each case. In addition, the TGI in the assay with MOLT-4 leukemia and in the assay on A549 NSCLC was more than 100 µM throughout.

In the case of `COc1ccc(/C=C/CN(C)CCc2ccccc2)cc1OC`, the TGI with MALME-3M melanoma, in the assay with UO-31 renal, with UACC-62 melanoma, in the assay on COLO 205 colon, with EKVX NSCLC and in the assay on MOLT-4 leukemia was more than 100 µM each time. In the assay on A549 NSCLC, this molecule yielded a TGI of more than 100 µM.

For the molecule `COc1ccc(C2=CC3CCC2C3)cc1` (stereo unspecified), the TGI in the assay on MALME-3M melanoma, in the assay with UO-31 renal, in the assay on UACC-62 melanoma, in the assay on SK-OV-3 ovarian, with COLO 205 colon and in the assay with EKVX NSCLC was more than 100 µM throughout. Besides, the TGI in the assay on MOLT-4 leukemia and with A549 NSCLC was more than 100 µM in each case.

For the molecule `CC(C)(C)C1C=C(Sc2ccccc2)C(=O)O1` (stereo unspecified), the TGI in the assay on MALME-3M melanoma is more than 100 µM; with UO-31 renal, 92.1 µM; in the assay on UACC-62 melanoma, more than 100 µM; with SK-OV-3 ovarian, more than 100 µM; in the assay with COLO 205 colon, 54.4 µM; in the assay on EKVX NSCLC, more than 100 µM. In addition, the TGI with MOLT-4 leukemia and in the assay on A549 NSCLC was more than 100 µM throughout.

Consider `[Cl-].[Dy+3].[O-]/N=C(\c1ccccc1)c1ccccn1.[O-]/N=C(\c1ccccc1)c1ccccn1.[O-]/N=C(\c1ccccc1)c1ccccn1`, for which the GI50 in the assay on MALME-3M melanoma is 34.4 µM; in the assay with UO-31 renal it was 25.3 µM; with UACC-62 melanoma it was 32.5 µM; in the assay on SK-OV-3 ovarian it was 33.9 µM; with COLO 205 colon, 33.5 µM; with EKVX NSCLC, 31.2 µM. Further, the GI50 was 8.47 µM in the assay on MOLT-4 leukemia and 32.2 µM in the assay on A549 NSCLC. For the same molecule, the TGI in the assay with MALME-3M melanoma was more than 100 µM; in the assay with UO-31 renal, 65.3 µM; in the assay with UACC-62 melanoma it was more than 100 µM; with SK-OV-3 ovarian, more than 100 µM; with COLO 205 colon, more than 100 µM; with EKVX NSCLC, more than 100 µM. Moreover, the TGI in the assay on MOLT-4 leukemia was 78.7 µM; with A549 NSCLC, more than 100 µM.

Regarding `CCc1ccc(/C=C\c2cc(OC)c(OC)c(OC)c2)cc1`, the GI50 is 0.0447 µM in the assay with MALME-3M melanoma, 0.0512 µM in the assay with UO-31 renal, 0.0212 µM with COLO 205 colon and 0.0521 µM with EKVX NSCLC. Moreover, the TGI in the assay on MALME-3M melanoma is 37.4 µM; in the assay with UO-31 renal, 81.3 µM; in the assay on COLO 205 colon, 0.134 µM and 0.0499 µM; in the assay on EKVX NSCLC, more than 100 µM; with A549 NSCLC it was 53.1 µM.

Take `CCC[CH2][Sn]1([CH2]CCC)[O]Cc2nc(C)ccc2[O]1`: the GI50 with MALME-3M melanoma is 5.03 µM; in the assay on UO-31 renal, 13.3 µM; in the assay with UACC-62 melanoma it was 2.06 µM; with SK-OV-3 ovarian it was 15.8 µM; with COLO 205 colon, 4.38 µM; in the assay with EKVX NSCLC, 4.36 µM. For the same molecule, the figures for the GI50 with MOLT-4 leukemia and in the assay with A549 NSCLC were 3.04 µM and 19 µM, respectively. In addition, the TGI came out at 14.5 µM in the assay on MALME-3M melanoma; 26.1 µM in the assay with UO-31 renal; 4.57 µM in the assay on UACC-62 melanoma; 29.7 µM in the assay with SK-OV-3 ovarian; 15.9 µM with COLO 205 colon; 18.2 µM with EKVX NSCLC. Further, the TGI worked out at 10.7 µM in the assay with MOLT-4 leukemia and 33.1 µM with A549 NSCLC.

As for `CC1=NN(C(=O)Nc2ccccc2)C(=O)C2CCC(=O)N12` (stereo unspecified), the TGI with UO-31 renal, with UACC-62 melanoma, in the assay with SK-OV-3 ovarian, in the assay on COLO 205 colon, with EKVX NSCLC and in the assay with MOLT-4 leukemia was more than 100 µM each time. For the same molecule, the TGI in the assay with A549 NSCLC is more than 100 µM.

For the molecule `COC(=O)/C(=N/NC(=O)C[N+](C)(C)C)C(C(=O)OC)C(=O)C(=O)Nc1ccc(F)cc1` (stereo unspecified), the TGI in the assay on MALME-3M melanoma, in the assay on UO-31 renal, with UACC-62 melanoma, in the assay on SK-OV-3 ovarian, with COLO 205 colon and in the assay on EKVX NSCLC was more than 100 µM throughout. The TGI in the assay on MOLT-4 leukemia and in the assay with A549 NSCLC was more than 100 µM throughout.

As for `O=c1/c(=C/c2ccco2)sc2nc3ccccc3n12`, the GI50 in the assay on MALME-3M melanoma was more than 100 µM; in the assay on UACC-62 melanoma, more than 100 µM; in the assay with EKVX NSCLC, more than 10 µM; in the assay on MOLT-4 leukemia, more than 100 µM; in the assay with A549 NSCLC, more than 100 µM. Moreover, the TGI is more than 100 µM with MALME-3M melanoma; more than 10 µM in the assay with UO-31 renal; more than 100 µM with UACC-62 melanoma; more than 100 µM in the assay with SK-OV-3 ovarian; more than 100 µM in the assay on COLO 205 colon; more than 100 µM in the assay on EKVX NSCLC. Moreover, the TGI in the assay on MOLT-4 leukemia and with A549 NSCLC was more than 100 µM throughout.
